Data as given in US8217042B2, “Pyridopyrazines and their use as modulators of kinases” (Zentaris GmbH, priority 2005, dated 2012).

Experiments:
Jnk1 + Jnk2 = assay: Cell-free kinase assay (ALPHA technology), Jnk1 + Jnk2; format: biochemical; settings: at 10 μM or 100 μM* ATP, recombinant human kinases
Experimental: The inhibitory effect of the inventive compounds was tested on various human serine/threonine kinases, tyrosine kinases and lipid kinases in enzymatic assays. Recombinant human kinases, for example Erk2, PI3Kalpha, -beta, -gamma, -delta, p38alpha, p38gamma, Jnk1, Jnk2 and others were used, in some cases as full-length kinases, in some cases as truncated fragments—but at least consisting of the functional kinase domains. The commercial kinase proteins (Proqinase, Upstate) were used as recombinant fusion proteins with GST (glutathione S-transferase) tag or His tag. Depending on the substrate type, the different kinase reactions were quantified by means of suitable ALPHA™ beads (PerkinElmer). […]
(§1) The fluorescence was detected the next morning in a Fusion™ alpha instrument (Perkin Elmer).
(§2) The calculation of % inhibition values per substance concentration was done by means of the following formula from the raw data determined in the Fusion™ alpha:
(§3) The controls were each determined 8 times, the substance samples each twice. 0% control contained neither any ATP nor any substrate; the 100% control contained no test substance. The IC50 values were determined with GraphPadPrism.

PI3Kalpha = target: T1, PI3Kalpha (Homo sapiens, UniProt P42336); assay: Cell-free kinase assay (ALPHA technology), PI3K-ALPHA; format: biochemical; settings: 100 μM ATP, recombinant human kinase
T1 construct: in some cases as full-length kinases, in some cases as truncated fragments; purchased Upstate 14-602
Experimental: (§4) The inhibitory effect of the inventive compounds was tested on various human serine/threonine kinases, tyrosine kinases and lipid kinases in enzymatic assays. Recombinant human kinases, for example Erk2, PI3Kalpha, -beta, -gamma, -delta, p38alpha, p38gamma, Jnk1, Jnk2 and others were used, in some cases as full-length kinases, in some cases as truncated fragments—but at least consisting of the functional kinase domains. The commercial kinase proteins (Proqinase, Upstate) were used as recombinant fusion proteins with GST (glutathione S-transferase) tag or His tag. Depending on the substrate type, the different kinase reactions were quantified by means of suitable ALPHA™ beads (PerkinElmer).
(§5) The substrate testing on the Erk assay is described in detail below. Selected test results of the Erk2, PI3Kalpha assays are cited below. […] The kinase reaction was then stopped by adding 10 μl of the ALPHA bead mix (10 μg/ml, #6760617/PerkinElmer), pre-incubated with anti-phospho MBP antibody (320 μM, #05-429/Upstate), in 25 mM Tris, 200 mM NaCl, 100 mM EDTA and 0.3% BSA, and left to stand overnight. • b) PI3K-ALPHAs (e.g. PI3Kalpha): The test substance, 1 ng of PI3Kalpha (#14-602, Upstate), 100 μM ATP and 20 μM PIP2 substrate (#P4508, Echelon) on a 384-well Optiplate (Perkin Elmer) for 1 h in 50 mM Hepes, 50 mM NaCl, 5 mM MgCl2, 0.05% Chaps, 5 mM DTT at pH 7.4. Subsequently, the kinase reaction was stopped by adding the ALPHA bead mix (10 μg/ml, #6760603/PerkinElmer), preincubated with 1 nM GST:Grp1 fusion protein (Upstate) and 15 nM biotinylated PIP3 (#C-39B6/Echelon) in 50 mM Hepes, 50 mM NaCl, 50 mM EDTA and 0.1% BSA, and left to stand overnight.
as §1, §2, §3

PI3K →pAkt = assay: Cellular substrate phosphorylation (Western blotting), PI3K substrate Akt; format: cell-based; settings: 5 h, tumour cell line
Experimental: This method enables a statement of whether the kinase modulator investigated achieves the desired effect in a cellular context too, i.e., in this case, a substrate protein downstream of the target kinase is examined for its phosphorylation status. To this end, the cells incubated with substance are lysed and the overall protein is separated on a reducing polyacrylamide gel. Subsequently, the proteins are transferred by means of Western blotting to a PVDF membrane and the substrate bands sought are made visible with specific antibodies and a suitable detection method. The substrate proteins downstream of the target kinases are detected simultaneously with an anti-phospho antibody which is specific in each case and simultaneously a total antibody which recognizes the substrate total protein. The duplex technology of the ODYSSEY imager (LiCOR) enables this simultaneous measurement. The intensity of the total substrate bands is employed to normalize and quantify the phosphorylation inhibition or activation.
Suitable tumour cell lines (e.g. BxPC3, Hct116 or MDA MB468) were seeded into 6-well microtitre plates in a defined cell count (e.g. 350 000 cells/well for BxPC3 and Hct116) in the particular standard complete media and then incubated overnight in an incubator at 37° C., 5% CO2 and 95% air humidity. The cells were then incubated further for a further 24 h under reduced-serum conditions, i.e. in the particular medium except at only 0.25% serum. The test substances were made up as stock solutions (10 mM) in DMSO and incubated with the cells at final concentrations of 5, 15.8 and 50 μM for 5 h. This was followed by cell lysis in 25 mM Tris, 150 mM NaCl, 10 mM sodium pyrophosphate, 2 mM EGTA, 25 mM beta-glycerophosphate, 25 mM NaF, 10% glycerol, 0.75% NP-40, 100 μM NaVO4 buffer. After protein quantification by means of BCA (bicinchonic acid protein assay kit, Sigma) assay, amounts of protein of about 20 μg per track were separated on a Lammli polyacrylamide gel and then transferred onto a PVDF membrane (Millipore) by means of semi-dry Western blotting at 0.8 mA/cm^2 for 1 h. This was followed by prehybridization of the membrane for 1 hour in I-block reagent (Applied Biosystems) and overnight incubation with the specific antibodies. To determine the Erk and PI3K inhibition, the next substrates Rsk1 downstream were detected with the total antibody (Rsk #sc-231g C-21, Santa Cruz) and the phospho antibody (Phospho-p90RSK (S380) #9341, NEB Cell Signalling) and Akt with the total antibody (Akt1 #sc-20, Santa Cruz) and the phospho antibody (Phospho-Akt (Ser 473) #9271, NEB Cell Signaling). After the membrane had been washed, the secondary antibodies were incubated with anti-rabbit IR Dye 800 (#611-732-127, Rockland) for the phospho antibody and anti-goat Alexa Fluor 680 (#A-21081, […]) for the total protein antibody. After incubation for 30 min at room temperature in the dark, the hybridization of the detection antibody was detected on the membrane by scanning in an ODYSSEY imager (LiCOR).

Erk2 = target: T2, Erk2; assay: Cell-free kinase assay (ALPHA technology), Erk2-ALPHA; format: biochemical; settings: 10 μM ATP, recombinant human kinase
T2 construct: in some cases as full-length kinases, in some cases as truncated fragments; purchased Upstate 14-173
Experimental: as §4, §5, §1, §2, §3

T2 sequence (P63085 whole entry, the tested form may be a part): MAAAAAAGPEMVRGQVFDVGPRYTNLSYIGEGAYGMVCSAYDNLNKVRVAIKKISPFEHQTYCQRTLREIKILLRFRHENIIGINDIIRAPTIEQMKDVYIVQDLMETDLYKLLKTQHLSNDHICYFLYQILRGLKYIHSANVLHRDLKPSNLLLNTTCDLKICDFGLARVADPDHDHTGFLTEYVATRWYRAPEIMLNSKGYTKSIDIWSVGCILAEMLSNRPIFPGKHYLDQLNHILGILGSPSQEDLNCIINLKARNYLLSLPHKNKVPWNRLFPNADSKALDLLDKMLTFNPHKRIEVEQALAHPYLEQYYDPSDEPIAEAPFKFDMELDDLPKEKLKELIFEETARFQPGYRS
T1 sequence (P42336 whole entry, the tested form may be a part): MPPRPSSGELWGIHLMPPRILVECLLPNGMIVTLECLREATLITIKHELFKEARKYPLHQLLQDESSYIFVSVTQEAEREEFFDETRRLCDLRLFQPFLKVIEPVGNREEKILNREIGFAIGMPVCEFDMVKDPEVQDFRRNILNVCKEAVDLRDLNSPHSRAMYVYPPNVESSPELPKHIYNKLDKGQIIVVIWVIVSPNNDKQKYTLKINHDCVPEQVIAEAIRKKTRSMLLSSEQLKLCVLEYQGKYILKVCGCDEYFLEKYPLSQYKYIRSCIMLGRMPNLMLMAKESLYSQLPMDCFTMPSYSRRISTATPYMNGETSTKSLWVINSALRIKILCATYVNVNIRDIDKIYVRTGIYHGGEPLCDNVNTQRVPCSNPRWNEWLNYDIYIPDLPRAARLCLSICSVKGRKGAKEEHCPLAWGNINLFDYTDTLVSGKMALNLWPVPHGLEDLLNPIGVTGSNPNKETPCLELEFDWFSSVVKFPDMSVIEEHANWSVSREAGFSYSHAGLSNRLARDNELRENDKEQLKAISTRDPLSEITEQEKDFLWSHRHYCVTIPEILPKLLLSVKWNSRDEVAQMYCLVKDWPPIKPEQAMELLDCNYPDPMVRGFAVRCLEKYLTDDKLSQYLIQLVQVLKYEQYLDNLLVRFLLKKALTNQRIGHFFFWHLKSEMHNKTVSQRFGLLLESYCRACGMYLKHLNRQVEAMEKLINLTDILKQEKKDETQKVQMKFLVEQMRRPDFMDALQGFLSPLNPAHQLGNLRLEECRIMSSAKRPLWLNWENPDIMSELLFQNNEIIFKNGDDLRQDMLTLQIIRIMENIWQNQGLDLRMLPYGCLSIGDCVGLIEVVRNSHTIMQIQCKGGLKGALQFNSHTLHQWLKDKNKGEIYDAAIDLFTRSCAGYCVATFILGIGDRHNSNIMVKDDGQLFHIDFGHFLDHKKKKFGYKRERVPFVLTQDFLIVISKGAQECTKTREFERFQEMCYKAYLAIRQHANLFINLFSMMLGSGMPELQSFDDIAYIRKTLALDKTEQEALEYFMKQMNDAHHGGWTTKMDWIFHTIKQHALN
T1 sequence (P27986 whole entry partner, the tested form may be a part): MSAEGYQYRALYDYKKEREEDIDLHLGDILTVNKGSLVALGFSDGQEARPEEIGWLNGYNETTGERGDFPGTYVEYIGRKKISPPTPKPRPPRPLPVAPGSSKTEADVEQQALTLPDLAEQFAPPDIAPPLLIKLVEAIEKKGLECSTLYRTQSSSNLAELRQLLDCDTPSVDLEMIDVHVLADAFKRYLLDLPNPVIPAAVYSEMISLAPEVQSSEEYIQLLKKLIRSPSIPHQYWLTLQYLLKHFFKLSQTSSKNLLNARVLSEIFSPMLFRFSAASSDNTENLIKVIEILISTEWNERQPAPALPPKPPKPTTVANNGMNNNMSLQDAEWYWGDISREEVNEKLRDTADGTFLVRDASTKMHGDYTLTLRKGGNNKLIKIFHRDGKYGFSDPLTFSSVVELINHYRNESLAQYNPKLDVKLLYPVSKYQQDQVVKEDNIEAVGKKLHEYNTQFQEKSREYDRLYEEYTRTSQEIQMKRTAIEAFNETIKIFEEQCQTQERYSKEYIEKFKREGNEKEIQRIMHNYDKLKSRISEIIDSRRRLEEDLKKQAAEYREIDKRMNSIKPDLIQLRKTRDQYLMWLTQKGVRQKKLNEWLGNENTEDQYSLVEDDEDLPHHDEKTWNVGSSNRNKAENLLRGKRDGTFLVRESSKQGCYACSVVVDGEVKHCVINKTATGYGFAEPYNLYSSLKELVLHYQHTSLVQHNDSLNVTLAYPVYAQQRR

IC50 (Jnk1 + Jnk2): > 31.6 µM
IC50 (PI3Kalpha): 1.9 µM
IC50 (Erk2): 9.6 µM
Structure (SMILES): CCNC(=O)Nc1ccc2ncc(Nc3ccc(C)c(NS(C)(=O)=O)c3)nc2n1 [Compound 49, N-{5-[6-(3-Ethylurea)pyrido[2,3-b]pyrazin-3-ylamino]-2-methylphenyl}methanesulphonamide]
inhibition at 50 µM (PI3K →pAkt): 90%
